Legend:
T cell proliferation = test system: T cell proliferation; set-up: method as in PMID 29254508; conditions: cited from earlier work
[1] = test system: CT26, LLC, B16, and 4T1 tumors; set-up: method as in PMID 29254508; conditions: B16, 4T1; cited from earlier work
recombinant human ARG1 = molecular target: T1, recombinant human ARG1 (Homo sapiens, UniProt P05089); assay: Recombinant arginase activity assay, hARG1; format: biochemical; conditions: 1 h at 37°C, pH 7.4, 10 mM L-arginine, urea detection; read-out: Inhibition of recombinant hARG1: IC50
T1 construct: made in house; host or cells: E. coli
T1 sequence (P05089 1-322): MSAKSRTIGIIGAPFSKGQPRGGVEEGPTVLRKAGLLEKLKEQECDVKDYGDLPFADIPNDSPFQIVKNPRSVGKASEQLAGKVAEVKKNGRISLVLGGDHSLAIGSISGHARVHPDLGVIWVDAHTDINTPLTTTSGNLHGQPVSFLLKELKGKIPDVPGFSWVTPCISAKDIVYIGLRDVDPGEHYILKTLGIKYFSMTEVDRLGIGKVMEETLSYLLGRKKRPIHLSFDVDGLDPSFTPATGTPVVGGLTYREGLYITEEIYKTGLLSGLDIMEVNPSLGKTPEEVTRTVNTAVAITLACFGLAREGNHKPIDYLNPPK
Description: (§1) The inhibitory activity towards hARG1 and hARG2 enzymes was assessed using recombinant enzymes biosynthesized using a prokaryotic expression system (E. coli) and purified by fast protein liquid chromatography (FPLC). Briefly, recombinant enzymes were incubated with the tested compounds for 1 h at 37°C in the reaction buffer (100 mM sodium phosphate buffer, 130 mM NaCl, 1 mg/mL BSA, pH 7.4) containing substrate (10 mM L-arginine hydrochloride) and cofactor (200 µM MnCl2). The assay is based on the detection of urea, which is generated during the conversion of L-arginine into L-ornithine catalyzed by arginases. To visualize the product, we adding a mixture of reagent A (4 mM oPA, 50 mM boric acid, 1 M sulfuric acid, 0.03% Brij-35) and reagent B (4 mM NED, 50 mM boric acid, 1 M sulfuric acid, 0.03% Brij-35) in equal proportions. The absorbance was measured at 515 nm. The urea production in the absence of any tested compound was considered as maximal enzyme activity. The absorbance in the absence of arginase (background) was considered as zero activity. Two reference compounds OAT-81 (ABH, no. 222638-65-5) and OAT-90 (2-amino-6-borono-2-(2-(3-(2,4-dichlorophenyl)propyloamino)ethyl) hexanoic acid, and two novel inhibitors OAT-1617 and OAT-1746 (the last three synthesized at OncoArendi Therapeutics) were tested. Normalized values were analyzed using GraphPad Prism 7.0 software and the IC50 values were determined.

recombinant human ARG2 = molecular target: T2, recombinant human ARG2 (Homo sapiens, UniProt P78540); assay: Recombinant arginase activity assay, hARG2; format: biochemical; conditions: 1 h at 37°C, pH 7.4, 10 mM L-arginine, urea detection; read-out: Inhibition of recombinant hARG2: IC50
T2 construct: made in house; host or cells: E. coli
T2 sequence (P78540 23-354): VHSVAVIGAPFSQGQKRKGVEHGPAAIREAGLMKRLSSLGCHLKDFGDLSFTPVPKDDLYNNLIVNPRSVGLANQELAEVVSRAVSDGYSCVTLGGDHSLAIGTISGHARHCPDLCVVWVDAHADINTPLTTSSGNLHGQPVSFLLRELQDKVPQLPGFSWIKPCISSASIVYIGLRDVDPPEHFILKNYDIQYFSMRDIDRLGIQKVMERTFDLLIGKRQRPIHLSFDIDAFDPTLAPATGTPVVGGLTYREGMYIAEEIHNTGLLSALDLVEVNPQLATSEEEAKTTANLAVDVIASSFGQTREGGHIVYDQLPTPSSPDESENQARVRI
Description: as §1

LN18 glioma cells = assay: Matrigel invasion assay, LN18 co-cultured with BV2 microglia; format: cell-based, human; conditions: 11 µM, co-culture with BV2, 18 h
Description: BV2 cells were plated onto a 24-well plate at the density of 4×10^4. After 24 h, the invasion assay was performed with tissue culture inserts (6.5 mm Transwell® with 8.0 µm Pore Polycarbonate Membrane Insert, Corning, NY, USA) coated with the Growth Factor Reduced Matrigel™ Matrix (BD Biosciences, San Diego. CA, USA). The Matrigel™ Matrix (50 µL of 1 mg/mL stock solution diluted in fresh DMEM) was dried under sterile conditions (37°C) for 5–6 h. The medium in BV2 cultures was replaced with fresh one 1 h before seeding glioblastoma cells onto the inserts, then LN18 and U87 glioblastoma cells were seeded at 2×10^4/insert on Matrigel-covered membranes in a serum-reduced medium (2% FBS). Untreated glioblastoma cells co-cultured with or without BV2 cells served as positive and negative controls, respectively. Cells were treated with the arginase-1 inhibitors OAT-90, OAT-1617 and OAT-1746 solved in PBS. The cultures were kept in incubator at 37°C with humidified air containing 5% CO2. […] The membranes from Transwell® inserts were cut out and images were acquired using a fluorescence microscope (Leica DM4000B, 10x lens) from the 5 independent fields (bottom; top; left; right side and the middle). Numbers of invading cells were counted using the ImageJ software (NIH, Bethesda, MD, USA). […]

U87-MG glioma cells = assay: Matrigel invasion assay, U87-MG co-cultured with BV2 microglia; format: cell-based, human
Description: BV2 cells were plated onto a 24-well plate at the density of 4×10^4. After 24 h, the invasion assay was performed with tissue culture inserts (6.5 mm Transwell® with 8.0 µm Pore Polycarbonate Membrane Insert, Corning, NY, USA) coated with the Growth Factor Reduced Matrigel™ Matrix (BD Biosciences, San Diego. CA, USA). The Matrigel™ Matrix (50 µL of 1 mg/mL stock solution diluted in fresh DMEM) was dried under sterile conditions (37°C) for 5–6 h. The medium in BV2 cultures was replaced with fresh one 1 h before seeding glioblastoma cells onto the inserts, then LN18 and U87 glioblastoma cells were seeded at 2×10^4/insert on Matrigel-covered membranes in a serum-reduced medium (2% FBS). Untreated glioblastoma cells co-cultured with or without BV2 cells served as positive and negative controls, respectively. Cells were treated with the arginase-1 inhibitors OAT-90, OAT-1617 and OAT-1746 solved in PBS. The cultures were kept in incubator at 37°C with humidified air containing 5% CO2. After 18 h cells were fixed in ice-cold methanol and cell nuclei stained with DAPI (4′,6-Diamidino-2-Phenylindole; 1 µg/mL, Sigma). The membranes from Transwell® inserts were cut out and images were acquired using a fluorescence microscope (Leica DM4000B, 10x lens) from the 5 independent fields (bottom; top; left; right side and the middle). Numbers of invading cells were counted using the ImageJ software (NIH, Bethesda, MD, USA). All experiments were performed three times, in duplicates.

SMILES | myeloid cell-mediated suppression of T cell proliferation in vitro (T cell proliferation) | tumor growth in mouse models of non-CNS tumors [1] | IC50 (recombinant human ARG1) | IC50 (recombinant human ARG2) | microglia-induced invasion of LN18 cells (LN18 glioma cells) | microglia-induced invasion of U87-MG cells (U87-MG glioma cells; 11 µM, co-culture with BV2, 18 h) | concentration dependence of the inhibitory effect on glioma invasion (U87-MG glioma cells; 0.1 and 11 µM, U87-MG with BV2)
C[C@H](N)C(=O)N1C[C@H](CCCB(O)O)[C@](N)(C(=O)O)C1 [CB-1158] | blocked | reduced tumor growth |  |  |  |  | 
NC(CCCCB(O)O)(CCNCCCc1ccc(Cl)cc1Cl)C(=O)O (stereo not drawn) [OAT-90, 2-amino-6-borono-2-(2-(3-(2,4-dichlorophenyl)propyloamino)ethyl) hexanoic acid, reference compound] |  |  | 151 nM | 796 nM | effectively reduced glioma invasion | effectively reduced glioma invasion | this dependence was not observed
N[C@@H](CCCCB(O)O)C(=O)O [Ref.comp. 1, ABH] |  |  | 1080 nM | 2670 nM |  |  | 

— paper PMC8422859, “A Novel Oral Arginase 1/2 Inhibitor Enhances the Antitumor Effect of PD-1 Inhibition in Murine Experimental Gliomas by Altering the Immunosuppressive Environment” (Frontiers in Oncology, 2021)
